The text below walks through data of patent US7358042B2, “Triosephosphate isomerase directed diagnostics and therapeutics for multidrug resistant neoplastic disease” (priority 2003, dated 2008).

The subject of data set [1] is antigen-positive E3 cell line. Particulars: read-out: IC50 (cytotoxicities); cited from earlier work.
In the next data set the test system is E3 target cells. Particulars: cited from earlier work.
The subject of data set [2] is hematological tumor cells. Description: Triosephosphate isomerase vaccination of mice injected with hematological tumor cells. It counts as in vivo. The following applies: mice vaccinated prior to injection of the tumor cells versus not vaccinated.

What is called IC50 is the midpoint of a concentration-inhibition curve. With `O=c1[nH]c(=O)n([C@H]2C[C@H](O)[C@@H](CO)O2)cc1F` [FUDR, 5-fluoro-2′-deoxyuridine], the IC50 in data set [1] is 0.4 nM. With `CC(=O)[C@]1(O)Cc2c(O)c3c(c(O)c2[C@@H](O[C@H]2C[C@H](N)[C@H](O)[C@H](C)O2)C1)C(=O)c1ccccc1C3=O` [Ida, Idarubicin], the IC50 in the data set with E3 target cells was 120 nM. In the case of “triosephosphate isomerase: purified full length murine triosephosphate isomerase protein used as vaccine antigen, may be administered with an adjuvant”, the tumor size entry in data set [2] is given as “smaller”.
